Tests used:
GSK3β (H350L) = GSK3β (H350L) (Homo sapiens (Human), UniProt P49841); conditions: read-out: GSK3β Ki
Protocol: The assay was initiated with the addition of ATP, following 15 minutes pre-incubation of enzyme and inhibitor at room temperature in the reaction mixture. The reaction was stopped after 30 minutes at room temperature by the addition of 50 μL of 80 mM EDTA.

[1] = target: CDK2/Cyclin E1 full length (Homo sapiens (Human), UniProt P24941); test: CDK2/Cyclin E1 full length mobility shift assay; type: biochemical

GSK3β (H350L), sequence (P49841 whole entry, stated change not applied): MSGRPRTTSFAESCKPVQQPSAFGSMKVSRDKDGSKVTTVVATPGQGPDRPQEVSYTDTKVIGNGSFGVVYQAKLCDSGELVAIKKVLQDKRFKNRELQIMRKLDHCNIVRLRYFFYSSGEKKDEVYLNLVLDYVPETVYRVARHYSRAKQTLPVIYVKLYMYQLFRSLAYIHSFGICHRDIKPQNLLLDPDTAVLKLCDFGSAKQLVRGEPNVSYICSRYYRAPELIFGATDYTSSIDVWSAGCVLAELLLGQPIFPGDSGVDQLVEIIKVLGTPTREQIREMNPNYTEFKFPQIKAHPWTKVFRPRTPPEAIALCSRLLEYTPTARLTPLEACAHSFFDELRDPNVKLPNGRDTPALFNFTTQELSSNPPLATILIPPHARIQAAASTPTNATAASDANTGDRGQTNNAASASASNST

SMILES | Ki (GSK3β (H350L)) [nM] | Ki [1] [nM]
CC[C@H](C)NC(=O)O[C@@H]1CC[C@H](c2cc(NC(=O)Cc3ccc4ncc(C)n4n3)n[nH]2)C1 [Example 46] | 20.6 | 0.18
COc1ncc(CC(=O)Nc2cc([C@H]3CC[C@@H](OC(=O)N4CCOC[C@H]4C)C3)[nH]n2)s1 [Example 647, (1R,3S)-3-(3-{[(2-methoxy-1,3-thiazol-5-yl)acetyl]amino}-1H-pyrazol-5-yl)cyclopentyl (3R)-3-methylmorpholine-4-carboxylate] | 3.39 | 1.08
CC[C@H](C)NC(=O)O[C@@H]1CC[C@H](c2cc(NC(=O)Cc3cc(C)ccc3S(C)(=O)=O)n[nH]2)C1 [Example 371, (1R,3S)-3-[3-({[5-methyl-2-(methylsulfonyl)phenyl]acetyl}amino)-1H-pyrazol-5-yl]cyclopentyl (2S)-butan-2-ylcarbamate] | 161 | 0.32
Cc1ccc(CC(=O)Nc2cc([C@H]3CC[C@@H](OC(=O)NCC(F)F)C3)[nH]n2)cn1 [Example 247, (1R,3S)-3-(3-{[(6-methylpyridin-3-yl)acetyl]amino}-1H-pyrazol-5-yl)cyclopentyl (2,2-difluoroethyl)carbamate] | 12.2 | 1.36
CCN(C)C(=O)O[C@@H]1CC[C@H](c2cc(NC(=O)Cc3cnc(C)s3)n[nH]2)C1 [Example 239, (1R,3S)-3-(3-{[(2-methyl-1,3-thiazol-5-yl)acetyl]amino}-1H-pyrazol-5-yl)cyclopentyl ethyl(methyl)carbamate] | 9.44 | 1.15
CC[C@H](C)NC(=O)O[C@@H]1CC[C@H](c2cc(NC(=O)Cc3ncc(OC)s3)n[nH]2)C1 [Example 353, (1R,3S)-3-(3-{[(5-methoxy-1,3-thiazol-2-yl)acetyl]amino}-1H-pyrazol-5-yl)cyclopentyl (2S)-butan-2-ylcarbamate] | 29.5 | 0.5
Cc1coc(CC(=O)Nc2cc([C@H]3CC[C@@H](OC(=O)N[C@@H](C)CC(F)(F)F)C3)[nH]n2)n1 [Example 93] | 7.64 | 0.22
COCc1cc(C(=O)Nc2cc([C@H]3CC[C@@H](OC(=O)NCCC(F)(F)F)C3)[nH]n2)n(C)n1 [Example 103] | > 47.6 | 1.37
CCNC(=O)O[C@@H]1CC[C@H](c2cc(NC(=O)Cc3ccno3)n[nH]2)C1 [Example 226, (1R,3S)-3-{3-[(1,2-oxazol-5-ylacetyl)amino]-1H-pyrazol-5-yl}cyclopentyl ethylcarbamate] | 132 | 3.72
COc1ccc(CC(=O)Nc2cc([C@H]3CC[C@@H](OC(=O)N4CCC4(C)C)C3)[nH]n2)cn1 [Example 144] | 1.26 | 0.1
CC[C@H](C)NC(=O)O[C@@H]1CC[C@H](c2cc(NC(=O)Cc3cn4ccsc4n3)n[nH]2)C1 [Example 355, (1R,3S)-3-{3-[(imidazo[2,1-b][1,3]thiazol-6-ylacetyl)amino]-1H-pyrazol-5-yl}cyclopentyl (2S)-butan-2-ylcarbamate] | 18.1 | 1.13
CC[C@H](C)NC(=O)O[C@@H]1CC[C@H](c2cc(NC(=O)c3ccnn3CCN(C)C)[nH]n2)C1 [Example 356, (1R,3S)-3-{5-[({1-[2-(dimethylamino)ethyl]-1H-pyrazol-5-yl}carbonyl)amino]-1H-pyrazol-3-yl}cyclopentyl (2S)-butan-2-ylcarbamate] | 148 | 0.67
CCCNC(=O)O[C@@H]1CC[C@H](c2cc(NC(=O)Cc3cc(C)ccc3S(C)(=O)=O)n[nH]2)C1 [Example 206, (1R,3S)-3-[3-({[5-methyl-2-(methylsulfonyl)phenyl]acetyl}amino)-1H-pyrazol-5-yl]cyclopentyl propylcarbamate] | > 95.3 | 1.22
CC[C@H](C)CNC(=O)O[C@@H]1CC[C@H](c2cc(NC(=O)Cc3ccno3)n[nH]2)C1 [Example 415, (1R,3S)-3-{3-[(1,2-oxazol-5-ylacetyl)amino]-1H-pyrazol-5-yl}cyclopentyl[(2S)-2-methylbutyl]carbamate] | 26.4 | 1.48
CC1(C)CCN1C(=O)O[C@@H]1CC[C@H](c2cc(NC(=O)Cc3ccccc3S(C)(=O)=O)n[nH]2)C1 [Example 142] | 17.7 | 0.22
Cc1cnc(CC(=O)Nc2cc([C@H]3CC[C@@H](OC(=O)NC(C)(C)C)C3)[nH]n2)o1 [Example 11, (1R,3S)-3-(3-{[(5-methyl-1,3-oxazol-2-yl)acetyl]amino}-1H-pyrazol-5-yl)cyclopentyl tert-butylcarbamate] | 36.2 | 0.32
Cc1ccc(CC(=O)Nc2cc([C@@H]3CC[C@H](OC(=O)N[C@H]4CC[C@@H](O)CC4)C3)[nH]n2)cn1 [Example 545, (1S,3R)-3-(3-{[(6-methylpyridin-3-yl)acetyl]amino}-1H-pyrazol-5-yl)cyclopentyl (cis-4-hydroxycyclohexyl)carbamate] | 2.2 | 0.39
CCCNC(=O)O[C@H]1CC[C@@H](c2cc(NC(=O)c3ccc(C)nc3C)n[nH]2)C1 [Example 180, (1S,3R)-3-(3-{[(2,6-dimethylpyridin-3-yl)carbonyl]amino}-1H-pyrazol-5-yl)cyclopentyl propylcarbamate] | > 95.3 | 0.81
CC(C)NC(=O)O[C@H]1CC[C@@H](c2cc(NC(=O)Cc3ccno3)n[nH]2)C1 [Example 263, (1S,3R)-3-{3-[(1,2-oxazol-5-ylacetyl)amino]-1H-pyrazol-5-yl}cyclopentyl propan-2-ylcarbamate] | 31.9 | 0.52

More lines, now with the values ahead:

Ki (GSK3β (H350L)) [nM] | Ki [1] [nM] | SMILES
9.89 | 0.32 | C[C@H]1C[C@H](C)N1C(=O)O[C@@H]1CC[C@H](c2cc(NC(=O)Cc3cnn(C)c3)n[nH]2)C1 [Example 605, (1R,3S)-3-(3-{[(1-methyl-1H-pyrazol-4-yl)acetyl]amino}-1H-pyrazol-5-yl)cyclopentyl (2S,4S)-2,4-dimethylazetidine-1-carboxylate]
41.7 | 0.43 | COc1cc(CC(=O)Nc2cc([C@H]3CC[C@@H](OC(=O)N[C@@H](C)CF)C3)[nH]n2)ccn1 [Example 100]
6.58 | 1.66 | COc1ccc(CC(=O)Nc2cc([C@@H]3CC[C@H](OC(=O)N4C[C@@H](O)[C@@H]4C)C3)[nH]n2)cn1 [Example 614, (1S,3R)-3-(3-{[(6-methoxypyridin-3-yl)acetyl]amino}-1H-pyrazol-5-yl)cyclopentyl (2S,3R)-3-hydroxy-2-methylazetidine-1-carboxylate]
40.9 | 2.63 | Cc1coc(CC(=O)Nc2cc([C@H]3CC[C@@H](OC(=O)NC(C)C)C3)[nH]n2)n1 [Example 272, (1R,3S)-3-(3-{[(4-methyl-1,3-oxazol-2-yl)acetyl]amino}-1H-pyrazol-5-yl)cyclopentyl propan-2-ylcarbamate]
2.77 | 0.36 | COc1ccc(CC(=O)Nc2cc([C@H]3CC[C@@H](OC(=O)N4C[C@@H](OC)[C@@H]4C)C3)[nH]n2)cn1 [Example 621, (1R,3S)-3-(3-{[(6-methoxypyridin-3-yl)acetyl]amino}-1H-pyrazol-5-yl)cyclopentyl (2S,3R)-3-methoxy-2-methylazetidine-1-carboxylate]
7.18 | 0.27 | C[C@H]1[C@H](O)CN1C(=O)O[C@@H]1CC[C@H](c2cc(NC(=O)Cc3cc(F)cc(F)c3)n[nH]2)C1 [Example 617, (1R,3S)-3-(3-{[(3,5-difluorophenyl)acetyl]amino}-1H-pyrazol-5-yl)cyclopentyl (2S,3R)-3-hydroxy-2-methylazetidine-1-carboxylate]
39.7 | 0.82 | CCCNC(=O)O[C@H]1CC[C@@H](c2cc(NC(=O)Cc3cnc(C)o3)n[nH]2)C1 [Example 175, (1S,3R)-3-(3-{[(2-methyl-1,3-oxazol-5-yl)acetyl]amino}-1H-pyrazol-5-yl)cyclopentyl propylcarbamate]
5.18 | 1.03 | COc1ncc(CC(=O)Nc2cc([C@H]3CC[C@@H](OC(=O)N4CCOC[C@@H]4C)C3)[nH]n2)s1 [Example 646, (1R,3S)-3-(3-{[(2-methoxy-1,3-thiazol-5-yl)acetyl]amino}-1H-pyrazol-5-yl)cyclopentyl (3S)-3-methylmorpholine-4-carboxylate]
9.9 | 0.39 | COc1cc(CC(=O)Nc2cc([C@H]3CC[C@@H](OC(=O)NCCC(F)(F)F)C3)[nH]n2)ccn1 [Example 102]
5.75 | 0.42 | COc1cc(CC(=O)Nc2cc([C@H]3CC[C@@H](OC(=O)N4C[C@@H](OC)[C@@H]4C)C3)[nH]n2)ccn1 [Example 619, (1R,3S)-3-(3-{[(2-methoxypyridin-4-yl)acetyl]amino}-1H-pyrazol-5-yl)cyclopentyl (2S,3R)-3-methoxy-2-methylazetidine-1-carboxylate]
8.48 | 0.21 | Cc1ncc(CC(=O)Nc2cc([C@H]3CC[C@@H](OC(=O)N4CCC[C@@H]4C)C3)[nH]n2)s1 [Example 139]
29.9 | 0.26 | Cc1cnc(CC(=O)Nc2cc([C@H]3CC[C@@H](OC(=O)NC(C)(C)C)C3)[nH]n2)cn1 [Example 299, (1R,3S)-3-(3-{[(5-methylpyrazin-2-yl)acetyl]amino}-1H-pyrazol-5-yl)cyclopentyl tert-butylcarbamate]
24.2 | 0.37 | C[C@]1(O)CC[C@@H](NC(=O)O[C@@H]2CC[C@H](c3cc(NC(=O)Cc4cc(F)cc(F)c4)n[nH]3)C2)CC1 [Example 572, (1R,3S)-3-(3-{[(3,5-difluorophenyl)acetyl]amino}-1H-pyrazol-5-yl)cyclopentyl (cis-4-hydroxy-4-methylcyclohexyl)carbamate]
3.57 | 0.24 | O=C(Cc1cc(F)cc(F)c1)Nc1cc([C@@H]2CC[C@H](OC(=O)N[C@H]3CC[C@@H](O)CC3)C2)[nH]n1 [Example 27]
6.07 | 0.09 | CC1(C)CCCN1C(=O)O[C@@H]1CC[C@H](c2cc(NC(=O)Cc3cnc4ncnn4c3)n[nH]2)C1 [Example 137]

From US11014911B2, “CDK2 inhibitors” (Pfizer Inc., priority 2019, dated 2021)
